Reference: patent US20130210846A1, “USE OF NOVEL PAN-CDK INHIBITORS FOR TREATING TUMORS” (BAYER INTELLECTUAL PROPERTY GMBH, priority 2010, published 2013)

How the values were obtained:
HeLa-MaTu = assay: Proliferation assay HeLa-MaTu; type: cell-based, human; conditions: Homo sapiens, 96 h, cervix carcinoma, 4 days, crystal violet
How it was run: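 Growth inhibition was determined from crystal violet extinction at 595 nm after cells had been treated for 4 days with test substance (0.01–30 μM, final DMSO 0.5%). Values were referenced to a plate fixed at the time of dosing and to untreated cells, with IC50 from a 4-parameter fit.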

[1] = test system: HeLa-MaTu human cervix carcinoma cells; assay: HeLa-MaTu human cervix carcinoma xenograft model; type: in vivo, female NMRI nude mice
Excerpt: (§1) Tumor cells grown in cell culture were implanted subcutaneously in the flank of female or male NMRI nude mice. The treatment was started as soon as the tumors had grown to a size of approx. 20 mm^2 The study was ended as soon as the tumors in one of the groups reached a size of approx. 150 mm^2.
(§2) Vehicle group: treatment with solubilizer (40% PEG400/60% water)
(§3) The studies were designed for determining the initial response of the human tumor model to the treatment with the Exemplary compound 2-SI-2. Tumor growth inhibition in percent (TGI) was either calculated at the end of the studies from the tumor weights (TGITW) using the formula 100×[1−(tumor weight of the treatment group/tumor weight of the vehicle group)], or on the day the vehicle group had to be ended from the tumor areas (TGITA) using the formula 100×[1−(tumor area of the treatment group on the day of the measurement−tumor area of the treatment group prior to treatment)/(tumor area of the vehicle group on the day of the measurement−tumor area of the vehicle group prior to treatment)]. In the case of a tumor growth inhibition of more than 50%, the treatment was considered to have been effective.
Efficacy in the HeLa-MaTu human cervix carcinoma xenograft model
HeLa-MaTu human cervix carcinoma cells implanted into female NMRI nude mice
• a) 0.05 mg/ml, 0.10 mg/ml, 0.15 mg/ml, 0.2 mg/ml of Example 2-SI-2 in 40% (v/v) PEG 400 in water • b) 0.15 mg/ml, 0.2 mg/ml, 0.25 mg/ml of Example 2-SI-2 in 40% (v/v) PEG 400 in water
• a) 0.5 to 2.0 mg/kg (1.5 to 6.0 mg/m^2) 1× per day b) 1.5 to 2.5 mg/kg (4.5 to 7.5 mg/m^2) 2× per day on 2 successive days, followed by 5 treatment-free days

[2] = test system: HeLa-MaTu-ADR multidrug-resistant human cervix carcinoma cells; assay: HeLa-MaTu-ADR Res. xenograft model; type: in vivo, female NMRI nude mice
Excerpt: as §1, §2, §3
Efficacy in the HeLa-MaTu-ADR Res. xenograft model
HeLa-MaTu-ADR multidrug-resistant human cervix carcinoma cells implanted into female NMRI nude mice.
Formulation • a) 0.15 mg/ml, 0.20 mg/ml of Example 2-SI-2 in 40% (v/v) PEG 400 in water • b) 0.20 mg/ml, 0.25 mg/ml of Example 2-SI-2 in 40% (v/v) PEG 400 in water
• a) 1.5 and 2.0 mg/kg (4.5 and 6.0 mg/m^2), 1× per day • b) 2.0 and 2.5 mg/kg (6.0 and 7.5 mg/m^2), 2× per day on 2 successive days, followed by 5 treatment-free days

[3] = test system: HCT116 human colorectal tumor cells; assay: HCT116 human colorectal xenograft model; type: in vivo, female NMRI nude mice
Excerpt: as §1, §2, §3
Efficacy in the HCT116 human colorectal xenograft model.
HCT116 human colorectal tumor cells implanted into female NMRI nude mice.
• a) 0.15 mg/ml, 0.20 mg/ml of Example 2-SI-2 in 40% (v/v) PEG 400 in water • b) 0.20 mg/ml, 0.25 mg/ml of Example 2-SI-2 in 40% (v/v) PEG 400 in water • c) 0.40 mg/ml, 0.50 mg/ml, 0.60 mg/ml of Example 2-SI-2 in 40% (v/v) PEG 400 in water
• a) 1.5 and 2.0 mg/kg (4.5 and 6.0 mg/m^2), 1× per day. • b) 2.0 and 2.5 mg/kg (6.0 and 7.5 mg/m^2), 2× per day on 2 successive days, followed by 5 treatment-free days. • c) 4.0 to 6.0 mg/kg (12 to 18 mg/m^2), 1× per day on 2 successive days, followed by 5 treatment-free days.

[4] = test system: NCI-H146 human small-cell lung tumor cells; assay: NCI-H146 human small-cell lung tumor model; type: in vivo, female NMRI nude mice
Excerpt: as §1, §2, §3
Efficacy in the NCI-H146 human small-cell lung tumor model.
NCI-H146 human small-cell lung tumor cells implanted into female NMRI nude mice. […]

[5] = HeLa-MaTu; b) 2.5 mg/kg oral 2× per day on 2 successive days, followed by 5 treatment-free days
[6] = HeLa-MaTu-ADR; b) 2.5 mg/kg oral 2× per day on 2 successive days, followed by 5 treatment-free days
[7] = HCT116; b) 2.5 mg/kg oral 2× per day on 2 successive days, followed by 5 treatment-free days

SMILES	IC50 (HeLa-MaTu) [nM]	TGITW (tumor growth inhibition from tumor weights) ([1]; HeLa-MaTu; a) 2.0 mg/kg oral 1× per day) [%]	TGITW (tumor growth inhibition from tumor weights) [1, 5] [%]	tumor regression observation [1, 5]	TGITW (tumor growth inhibition from tumor weights) ([2]; HeLa-MaTu-ADR; a) 2.0 mg/kg oral 1× per day) [%]	TGITW (tumor growth inhibition from tumor weights) [2, 6] [%]	tumor regression observation [2, 6]	TGITW (tumor growth inhibition from tumor weights) ([3]; HCT116; a) 2.0 mg/kg oral 1× per day) [%]	TGITW (tumor growth inhibition from tumor weights) [3, 7] [%]	tumor regression observation [3, 7]	TGITW (tumor growth inhibition from tumor weights) ([3]; HCT116; c) 5.0 mg/kg oral 1× per day on 2 successive days, followed by 5 treatment-free days) [%]	TGITW (tumor growth inhibition from tumor weights) ([4]; NCI-H146; a) 2.0 mg/kg oral 1× per day) [%]	TGITW (tumor growth inhibition from tumor weights) ([4]; NCI-H146; b) 2.0 mg/kg oral 2× per day on 2 successive days, followed by 5 treatment-free days) [%]
C[C@@H](O)[C@@H](C)Nc1nc(Nc2ccc(S(=N)(=O)C3CC3)cc2)ncc1C(F)(F)F (mixture of isomers) [Example 4-SI-1, (RS)—S-Cyclopropyl-S-(4-{[4-{[(1R,2R)-2-hydroxy-1-methylpropyl]amino}-5-(trifluoromethyl)-pyrimidin-2-yl]amino}phenyl)sulfoximide]	10	–	–	–	–	–	–	–	–	–	–	–	–
C[C@@H](O)[C@@H](C)Oc1nc(Nc2ccc(S(C)(=N)=O)cc2)ncc1C(F)(F)F (mixture of isomers) [Example 2-SI-2, (RS)—S-(4-{[4-{[(1R,2R)-2-Hydroxy-1-methylpropyl]oxy}-5-(trifluoromethyl)pyrimidin-2-yl]-amino}phenyl)-S-methylsulfoximide]	–	97	98	signs of tumor regression	97	90	signs of tumor regression	67	57	signs of tumor regression	83	95	82
